Test results reported in article PMC9199882 (Clinical and Translational Science, 2022).
Read-outs that look alike come from different tables or passages of the source.

What was measured:
[1] = Midazolam and 1-hydroxymidazolam plasma PK, DDI study stage 1
[2] = test system: CYP3A; experiment: Effect of asciminib on CYP3A substrate midazolam; details: for AUClast G mean ratio (90% CI) / Cmax G mean ratio (90% CI): midazolam + asciminib / midazolam
[3] = patients with CML, 40 mg bid, ref Novartis, unpublished data, cited from earlier work
[4] = test system: CYP2C9; experiment: Effect of asciminib on CYP2C9 substrate warfarin
[5] = cited from earlier work
[6] = patients with CML, doses of up to 200 mg b.i.d.; cited from earlier work
[7] = test system: CYP2C8; experiment: Effect of asciminib on CYP2C8 substrate repaglinide; details: for AUClast G mean ratio (90% CI) / Cmax G mean ratio (90% CI): repaglinide + asciminib / repaglinide
[8] = midazolam 7.5 mg oral; cited from earlier work
[9] = Repaglinide plasma PK, DDI study stage 2
[10] = test system: blood glucose; experiment: Blood glucose concentration-time profile of repaglinide; type: in vivo, human; details: blood glucose concentration–time profiles, 6 h post-dose, days 1 and 5
[11] = for Cmax, adjusted G mean: linear mixed model
[12] = warfarin 10 mg oral, cited from earlier work
[13] = test system: prothrombin time; experiment: Prothrombin pharmacodynamic analysis of warfarin; details: warfarin + asciminib vs warfarin alone
[14] = ref Novartis, unpublished data, 9, 10
[15] = midazolam at asciminib steady-state vs midazolam alone
[16] = repaglinide in the presence of asciminib vs alone
[17] = warfarin at asciminib steady-state vs warfarin alone
[18] = warfarin 5 mg oral + asciminib 40 mg b.i.d. steady-state, day 11, plasma
[19] = warfarin 5 mg oral alone, day 1, plasma
[20] = warfarin + asciminib 40 mg b.i.d. steady-state

OCc1ncc2n1-c1ccc(Cl)cc1C(c1ccccc1F)=NC2 [1-hydroxymidazolam, 1‐hydroxymidazolam]
metabolite‐to‐parent ratio of G mean AUCinf ([1]; midazolam alone): 0.31 | metabolite‐to‐parent ratio of G mean AUClast ([1]; midazolam alone): 0.31 | metabolite‐to‐parent ratio of G mean AUCinf ([1]; midazolam with asciminib): 0.29 | metabolite‐to‐parent ratio of G mean AUClast ([1]; midazolam with asciminib): 0.27

O=C(Nc1ccc(OC(F)(F)Cl)cc1)c1cnc(N2CC[C@@H](O)C2)c(-c2ccn[nH]2)c1 [Asciminib, asciminib]
inhibitor classification, CYP3A ([2]; human, in vivo): weak inhibitor | Cmax at steady‐state, unbound asciminib [3]: 48 nM | Cmax ([3]; read-out: Cmax at steady‐state, total asciminib): 1770 nM | inhibitor classification, CYP2C9 ([4]; asciminib 40 mg b.i.d.): weak inhibitor | half‐life (T 1/2) [5]: 7 to 15 h | unchanged asciminib in urine [5]: 2.5% | unchanged asciminib share of drug‐related exposure in plasma [5]: > 90% | mean recovery from feces ([5]; disposition studies in humans): 80% | clearance pathway: direct glucuronidation by UGT ([5]; mainly UGT2B7, UGT2B17, UGT1A3/4, ref Novartis, unpublished data, 9, 10): 27.9% | clearance pathway: oxidation by CYP3A4 ([5]; part of the CYP oxidation, ref Novartis, unpublished data, 9, 10): 36% | median time to reach the maximum plasma concentration (Tmax) ([5]; post‐dose): 2 to 3 h | clearance pathway: biliary secretion by BCRP [5, 14]: 31.1% | clearance pathway: oxidation by cytochrome P450 enzymes [5, 14]: 37.8% | maximum tolerated dose [6]: not reached | effect on CYP2C8 ([7]; asciminib 40 mg b.i.d.): no meaningful effect

Cc1ncc2n1-c1ccc(Cl)cc1C(c1ccccc1F)=NC2 [Midazolam, midazolam]
AUClast G mean ratio (90% CI) [2]: 1.27 | Cmax G mean ratio (90% CI) [2]: 1.11 | AUClast G mean ratio (90% CI) ([2]; listed as midazolam): 1.27 (1.14, 1.41) | Cmax G mean ratio (90% CI) ([2]; listed as midazolam): 1.11 (0.96, 1.28) | increase in AUCinf [2, 15]: 28% | increase in AUClast [2, 15]: 27% | increase in Cmax [2, 15]: 11% | median Cmax [8]: 63.1 ng/mL | median T 1/2 [8]: 3.2 h | median Tmax [8]: 0.34 h | AUC(0-inf) ([1]; human, plasma, oral, AUCinf, adjusted G mean, midazolam alone, linear mixed model): 37.4 ng·h/mL | AUC(0-t) ([1]; human, plasma, oral, AUClast, adjusted G mean, midazolam alone, linear mixed model): 35.4 ng·h/mL | Cmax ([1]; human, plasma, oral, Cmax, adjusted G mean, midazolam alone, linear mixed model): 15.9 ng/mL | Tmax ([1]; human, plasma, po, 4 mg): 0.51 h | Vd/F ([1]; human, plasma, po, 4 mg): 413 L | CL/F, G mean (GCV%) ([1]; midazolam 4 mg oral + asciminib 40 mg b.i.d. steady-state, day 11): 83.0 (38.8) L/h | AUClast, G mean (GCV%) ([1]; midazolam 4 mg oral + asciminib 40 mg b.i.d. steady-state, day 11, plasma): 44.9 (38.1) ng × h/ml | CL/F, G mean (GCV%) ([1]; midazolam 4 mg oral alone, day 1): 107 (31.2) L/h

CCOc1cc(CC(=O)N[C@@H](CC(C)C)c2ccccc2N2CCCCC2)ccc1C(=O)O [Repaglinide, repaglinide]
Cmax ([9]; human, plasma, oral, 0.5 mg): 6.71 ng/mL | Cmax ([9]; human, plasma, po, 0.5 mg): 6.71 ng/mL | Tmax ([9]; human, plasma, po, 0.5 mg): 0.75 h | Vd/F ([9]; human, plasma, po, 0.5 mg): 162 L | CL/F, G mean (GCV%) ([9]; repaglinide 0.5 mg oral + asciminib 40 mg b.i.d. steady-state, day 5): 43.2 (38.2) L/h | T 1/2, G mean (GCV%) ([9]; repaglinide 0.5 mg oral + asciminib 40 mg b.i.d. steady-state, day 5, plasma): 2.09 (76.3) h | CL/F, G mean (GCV%) ([9]; repaglinide 0.5 mg oral alone, day 1): 46.3 (36.8) L/h | T 1/2, G mean (GCV%) ([9]; repaglinide 0.5 mg oral alone, day 1, plasma): 2.42 (46.2) h | AUClast G mean ratio (90% CI) [7]: 1.09 | Cmax G mean ratio (90% CI) [7]: 1.14 | AUClast G mean ratio (90% CI) ([7]; listed as repaglinide): 1.09 (1.03, 1.15) | Cmax G mean ratio (90% CI) ([7]; listed as repaglinide): 1.14 (1.01, 1.28) | increase in AUCinf [7, 16]: 8% | increase in AUClast [7, 16]: 9% | increase in Cmax [7, 16]: 14% | glucose‐metabolizing activity alone or in combination with asciminib [10]: no difference

CC(=O)C[C@H](c1ccccc1)c1c(O)c2ccccc2oc1=O [R‐Warfarin, R‐warfarin]
increase in AUCinf [4, 17]: 25% | increase in AUClast [4, 17]: 24% | increase in Cmax [4, 17]: 10% | Cmax, G mean (GCV%) [11, 18]: 213 (20.4) ng/ml | Tmax, median (range) [11, 18]: 2.95 (0.94–11.7) h | Cmax, G mean (GCV%) [11, 19]: 196 (19.6) ng/ml | Tmax, median (range) [11, 19]: 2.01 (0.99–12.0) h | Tmax, median (range) ([11]; warfarin 5 mg oral alone, day 1, plasma, listed as R‐warfarin): 2.0 h | Cmax, adjusted G mean [11, 20]: 215 ng/mL | Cmax, adjusted G mean ([11]; warfarin alone): 196 ng/mL

CC(=O)C[C@@H](c1ccccc1)c1c(O)c2ccccc2oc1=O [S‐Warfarin, S‐warfarin]
increase in AUClast [4, 17]: 39% | increase in Cmax [4, 17]: 9% | Cmax, G mean (GCV%) [11, 18]: 225 (17.2) ng/ml | Tmax, median (range) [11, 18]: 2.00 (0.94–3.99) h | Cmax, G mean (GCV%) [11, 19]: 209 (18.6) ng/ml | Tmax, median (range) [11, 19]: 2.00 (0.99–4.00) h | Cmax, adjusted G mean [11, 20]: 227 ng/mL | Cmax, adjusted G mean ([11]; warfarin alone): 209 ng/mL

CC(=O)CC(c1ccccc1)c1c(O)c2ccccc2oc1=O (stereo not drawn) [Warfarin, warfarin]
Cmax ([12]; read-out: median Cmax): 1700 to 2000 nM | median Cmax ([12]; converted from μM): 500 to 600 ng/mL | median Tmax [12]: 2 h | anticoagulation activity on co‐administration with asciminib [13]: unaffected
